The values below come from ChEMBL document CHEMBL1126341, “Synthesis of stereoisomers of 1,4:3,6-dianhydrohexitol nitrate derivative, KF-14124” (1992).

What all share (format): functional
Assay [1] relates to Rattus norvegicus. The assay can be described thus: Compound was tested for inhibition of T-wave elevation in lysine-Vasopressin -Induced-Angina Pectoris model in rats when administered intraperitoneally. As to conditions: for minimal effective dose: Rattus norvegicus, ip, read-out: MED.
Assay [2] relates to Rattus norvegicus. The assay can be described thus: Compound was tested for inhibition of T-wave elevation in lysine-Vasopressin -Induced-Angina Pectoris model in rats when administered perorally. The note with it: po, read-out: MED.
The species named for assay [3] is Canis familiaris. The assay can be described thus: Minimum effective dose in propanol induced heart failure in left ventricular end diastolic pressure model of dog when dose given intradermally. As to conditions: Canis lupus familiaris, Heart left ventricle; read-out: MED.
The species entered for assay [4] is Canis familiaris. Nature of the assay: Minimum effective dose in […] induced heart failure in left ventricular end diastolic pressure model of dog. The note with it: Canis lupus familiaris, Heart left ventricle; read-out: MED.

The structures appear in SMILES notation.

For the compound `O=[N+]([O-])O[C@@H]1CO[C@H]2[C@@H]1OC[C@H]2N1CCN(CCCSc2ccccc2)CC1`, the minimal effective dose with Rattus norvegicus [1] is > 25 mg/kg. As to `O=[N+]([O-])O[C@H]1CO[C@H]2[C@@H]1OC[C@H]2N1CCN(CCCSc2ccccc2)CC1`, the MED in the assay on Rattus norvegicus [1] is >25 mg/kg. `O=[N+]([O-])O[C@@H]1CO[C@H]2[C@@H]1OC[C@@H]2N1CCN(CCCSc2ccccc2)CC1`: the minimal effective dose in the assay on Rattus norvegicus [1] is > 25 mg/kg; in the assay with Rattus norvegicus [2], > 30 mg/kg. As to `O=[N+]([O-])O[C@H]1CO[C@@H]2C(N3CCN(CCCSc4ccccc4)CC3)CO[C@H]12` (single isomer, unassigned), the minimal effective dose with Rattus norvegicus [1] worked out at 12.5 mg/kg; with Rattus norvegicus [2] it was 10 mg/kg; in the assay listed under Canis familiaris [3], 0.1 mg/kg. For `O=[N+]([O-])O[C@H]1CO[C@H]2[C@@H]1OC[C@H]2O[N+](=O)[O-]` [ISOSORBIDE DINITRATE], the minimal effective dose in the assay listed under Canis familiaris [4] was > 0.3 mg/kg.
